Data: ChEMBL document CHEMBL1201862, “PubChem BioAssay data set” (2004)
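Compound exposure: 48 hours, 5 concentrations, 96-well plates. GI50 marks 50% less growth.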 The source made the active and inactive calls. No stated cut-off is given here; in the data, active = GI50 up to about 1.1 µM and inactive = higher.

Legend:
Assay in all cases: growth of human tumour cells (NCI), 48 h
IGROV-1 = system: IGROV-1
T47D = system: T47D
UO-31 = system: UO-31
CAKI-1 = system: CAKI-1
HL-60 = system: HL-60
786-0 = system: 786-0
HCT-116 = system: HCT-116
HCT-15 = system: HCT-15
MDA-MB-435 = system: MDA-MB-435
MDA-MB-231 = system: MDA-MB-231
RXF 393 = system: RXF 393
OVCAR-8 = system: OVCAR-8
EKVX = system: EKVX
SW-620 = system: SW-620
K562 = system: K562
SK-MEL-28 = system: SK-MEL-28
SNB-75 = system: SNB-75
HCC 2998 = system: HCC 2998
UACC-62 = system: UACC-62
RPMI-8226 = system: RPMI-8226
A549 = system: A549
SK-MEL-5 = system: SK-MEL-5
A498 = system: A498
SN12C = system: SN12C
ACHN = system: ACHN
BT-549 = system: BT-549
OVCAR-5 = system: OVCAR-5
HT-29 = system: HT-29
NCI-H226 = system: NCI-H226
OVCAR-3 = system: OVCAR-3
LOX IMVI = system: LOX IMVI
SF-268 = system: SF-268
MCF7 = system: MCF7
MDA-N = system: MDA-N
M14 = system: M14
HOP-92 = system: HOP-92
SK-OV-3 = system: SK-OV-3
MOLT-4 = system: MOLT-4
SNB-19 = system: SNB-19
COLO 205 = system: COLO 205
NCI-H460 = system: NCI-H460
SK-MEL-2 = system: SK-MEL-2
U-251 = system: U-251
NCI-H522 = system: NCI-H522
CCRF-CEM = system: CCRF-CEM
NCI/ADR-RES = system: NCI/ADR-RES
UACC-257 = system: UACC-257
OVCAR-4 = system: OVCAR-4
Hs-578T = system: Hs-578T
TK-10 = system: TK-10
SF-295 = system: SF-295
PC-3 = system: PC-3
NCI-H23 = system: NCI-H23
KM12 = system: KM12
DU-145 = system: DU-145
HOP-62 = system: HOP-62
Malme-3M = system: Malme-3M
SF-539 = system: SF-539

COc1c(C(=O)CC2c3c(cc4oc(C)cc(=O)c4c3OC)OC(=N)C2c2nc3ccccc3[nH]2)c(O)c(OC)c2occc12 (centres undefined)
GI50 (IGROV-1): > 100 µM (inactive) | GI50 (T47D): > 100 µM (inactive) | GI50 (UO-31): > 100 µM (inactive) | GI50 (CAKI-1): > 100 µM (inactive) | GI50 (HL-60): > 100 µM (inactive) | GI50 (786-0): > 100 µM (inactive) | GI50 (HCT-116): > 100 µM (inactive) | GI50 (HCT-15): > 100 µM | GI50 (MDA-MB-435): > 100 µM (inactive) | GI50 (MDA-MB-231): > 100 µM (inactive) | GI50 (RXF 393): > 100 µM (inactive) | GI50 (OVCAR-8): > 100 µM (inactive) | GI50 (EKVX): > 100 µM (inactive) | GI50 (SW-620): > 100 µM (inactive) | GI50 (K562): > 100 µM (inactive) | GI50 (SK-MEL-28): > 100 µM (inactive) | GI50 (SNB-75): > 100 µM (inactive) | GI50 (HCC 2998): > 100 µM (inactive) | GI50 (UACC-62): > 100 µM (inactive) | GI50 (RPMI-8226): > 100 µM (inactive) | GI50 (A549): > 100 µM (inactive) | GI50 (SK-MEL-5): > 100 µM (inactive) | GI50 (A498): > 100 µM (inactive) | GI50 (SN12C): > 100 µM (inactive) | GI50 (ACHN): > 100 µM (inactive) | GI50 (BT-549): > 100 µM (inactive) | GI50 (OVCAR-5): > 100 µM (inactive) | GI50 (HT-29): > 100 µM (inactive) | GI50 (NCI-H226): > 100 µM (inactive) | GI50 (OVCAR-3): > 100 µM (inactive) | GI50 (LOX IMVI): > 100 µM (inactive) | GI50 (SF-268): > 100 µM (inactive) | GI50 (MCF7): > 100 µM (inactive) | GI50 (MDA-N): > 100 µM (inactive) | GI50 (M14): > 100 µM (inactive) | GI50 (HOP-92): > 100 µM (inactive) | GI50 (SK-OV-3): > 100 µM (inactive) | GI50 (MOLT-4): > 100 µM (inactive) | GI50 (SNB-19): > 100 µM (inactive) | GI50 (COLO 205): > 100 µM (inactive) | GI50 (NCI-H460): > 100 µM (inactive) | GI50 (SK-MEL-2): > 100 µM (inactive) | GI50 (U-251): > 100 µM (inactive) | GI50 (NCI-H522): > 100 µM (inactive) | GI50 (CCRF-CEM): > 100 µM (inactive) | GI50 (NCI/ADR-RES): > 100 µM (inactive) | GI50 (UACC-257): > 100 µM (inactive) | GI50 (OVCAR-4): > 100 µM (inactive) | GI50 (Hs-578T): > 100 µM (inactive) | GI50 (TK-10): > 100 µM (inactive) | GI50 (SF-295): > 100 µM (inactive) | GI50 (PC-3): > 100 µM (inactive) | GI50 (NCI-H23): > 100 µM (inactive) | GI50 (KM12): > 100 µM (inactive) | GI50 (DU-145): > 100 µM (inactive) | GI50 (HOP-62): > 100 µM (inactive) | GI50 (Malme-3M): > 100 µM (inactive)

N#Cc1c(N)nc2c(C#N)c(N)cc3c2c1Oc1ccccc1-3
GI50 (IGROV-1): > 100 µM (inactive) | GI50 (T47D): > 100 µM (inactive) | GI50 (UO-31): > 100 µM (inactive) | GI50 (CAKI-1): > 100 µM (inactive) | GI50 (HL-60): > 100 µM (inactive) | GI50 (786-0): > 100 µM (inactive) | GI50 (HCT-116): > 100 µM (inactive) | GI50 (HCT-15): > 100 µM | GI50 (MDA-MB-435): > 100 µM (inactive) | GI50 (MDA-MB-231): > 100 µM (inactive) | GI50 (RXF 393): > 100 µM (inactive) | GI50 (OVCAR-8): > 100 µM (inactive) | GI50 (EKVX): > 100 µM (inactive) | GI50 (SW-620): > 100 µM (inactive) | GI50 (K562): > 100 µM (inactive) | GI50 (SK-MEL-28): > 100 µM (inactive) | GI50 (SNB-75): > 100 µM (inactive) | GI50 (HCC 2998): > 100 µM (inactive) | GI50 (SF-539): > 100 µM (inactive) | GI50 (UACC-62): > 100 µM (inactive) | GI50 (RPMI-8226): > 100 µM (inactive) | GI50 (A549): > 100 µM (inactive) | GI50 (SK-MEL-5): > 100 µM (inactive) | GI50 (A498): > 100 µM (inactive) | GI50 (SN12C): > 100 µM (inactive) | GI50 (ACHN): > 100 µM (inactive) | GI50 (BT-549): > 100 µM (inactive) | GI50 (OVCAR-5): > 100 µM (inactive) | GI50 (HT-29): > 100 µM (inactive) | GI50 (NCI-H226): > 100 µM (inactive) | GI50 (OVCAR-3): > 100 µM (inactive) | GI50 (LOX IMVI): > 100 µM (inactive) | GI50 (SF-268): > 100 µM (inactive) | GI50 (MCF7): > 100 µM (inactive) | GI50 (MDA-N): > 100 µM (inactive) | GI50 (M14): > 100 µM (inactive) | GI50 (HOP-92): > 100 µM (inactive) | GI50 (SK-OV-3): > 100 µM (inactive) | GI50 (MOLT-4): > 100 µM (inactive) | GI50 (SNB-19): > 100 µM (inactive) | GI50 (COLO 205): > 100 µM (inactive) | GI50 (NCI-H460): > 100 µM (inactive) | GI50 (SK-MEL-2): > 100 µM (inactive) | GI50 (U-251): > 100 µM (inactive) | GI50 (CCRF-CEM): > 100 µM (inactive) | GI50 (NCI/ADR-RES): > 100 µM (inactive) | GI50 (UACC-257): > 100 µM (inactive) | GI50 (OVCAR-4): > 100 µM (inactive) | GI50 (Hs-578T): > 100 µM (inactive) | GI50 (TK-10): > 100 µM (inactive) | GI50 (SF-295): > 100 µM (inactive) | GI50 (PC-3): > 100 µM (inactive) | GI50 (NCI-H23): > 100 µM (inactive) | GI50 (KM12): 74 µM (inactive) | GI50 (DU-145): > 100 µM (inactive) | GI50 (HOP-62): > 100 µM (inactive) | GI50 (Malme-3M): > 100 µM (inactive)
